# Laboratory results reported in PubChem BioAssay AID651630 (Sanford-Burnham Center for Chemical Genomics, 2012).
# Activity calls are given as the source filed them.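 The calls were made as follows: active = lipid-stain IC50 at or below a set limit, with nuclear-stain toxicity IC50 at least five times higher; inactive = the rest.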
# Tests used:
# [1] = test system: DAPI; assay: triacylglycerol accumulation inhibitor potency, dose response, cell-based, panel, Nile Red and DAPI fluorescence, H9c2 (AID 651630); settings: H9c2 cells, DAPI nuclear fluorescence (cytotoxicity counter-readout), oleic acid;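 also: cells exposed to compound overnight before fixation and staining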
# [2] = test system: TAG; assay: as above; settings: H9c2 cells, Nile Red TAG fluorescence, oleic acid
SMILES,IC50 cytotoxicity (DAPI nuclear signal decrease) ([1]; mean of runs),IC50 cytotoxicity (DAPI nuclear signal decrease) ([1]; run 1) [µM],IC50 cytotoxicity (DAPI nuclear signal decrease) ([1]; run 2) [µM],IC50 ([2]; run 1) [µM],IC50 ([2]; run 2) [µM],IC50 ([2]; mean of runs)
COc1cc(OC)nc(Nc2nc(C(N)Cc3ccc(Cl)cc3)cs2)n1 (stereo not drawn),> 25 µM (inactive),> 25,> 25,> 25,23.4,–
NC(Cc1ccc(Cl)cc1)c1csc(NC(=O)NCCc2ccccc2)n1 (stereo not drawn),19.7 µM (inactive),19,20.4,> 25,> 25,> 25 µM (inactive)
COC(=O)c1c(NC(NC(=O)C(C)(C)C)C(Cl)(Cl)Cl)sc2c1CCC2 (stereo not drawn),> 25 µM (inactive),> 25,> 25,13.1,13.5,13.3 µM
CC1(c2ccccc2)CC(C)(C)N(C(=O)c2cc([N+](=O)[O-])cc([N+](=O)[O-])c2)c2ccccc21 (stereo not drawn),> 25 µM (inactive),> 25,> 25,10.4,7.99,9.21 µM
Cc1cccc(Oc2nc(-c3ccccn3)nc3ccccc23)c1,> 25 µM (inactive),> 25,> 25,> 25,> 25,> 25 µM (inactive)
COc1ccccc1N1CCN(CC(=O)Nc2cc(C)nn2-c2nc(C)cc(C)n2)CC1,> 25 µM (inactive),> 25,> 25,19.7,18.1,18.9 µM (inactive)
COC(=O)C1=C(C)N(Cc2ccccc2)C(=NCC(C)C)N[C@H]1c1cccc(F)c1,> 25 µM (inactive),> 25,> 25,> 25,> 25,> 25 µM (inactive)
COc1cc(C#Cc2c(-c3cncn3C)n(C)c3ccc(-c4cc(OC)c(OC)c(OC)c4)cc23)cc(OC)c1,> 25 µM (inactive),> 25,> 25,> 25,> 25,> 25 µM (inactive)
COc1cc(/C=C2\Oc3ccc(C#Cc4ccc(O)cc4)cc3C2=O)cc(OC)c1,4.72 µM (inactive),5.07,4.36,3.1,2.92,3.01 µM
Cc1cc(Nc2ccc(C)c(Cl)c2)nc(N2CCOCC2)n1,> 25 µM (inactive),> 25,> 25,> 25,> 25,> 25 µM (inactive)
c1cc(C2CCCCC2)ccc1Oc1nc(N2CCOCC2)nc(N2CCOCC2)n1,> 25 µM (inactive),> 25,> 25,> 25,> 25,> 25 µM (inactive)
C[C@H](O)[C@@H]1CN2CCc3c([nH]c4ccc(-c5ccc6c(c5)OCO6)cc34)[C@@H]2C[C@@H]1N(C)C(=O)Nc1ccc(F)cc1,> 25 µM (inactive),> 25,> 25,7.28,14.7,11 µM
O=C(CCC(=O)N1CCOc2ccc(Cl)cc21)NCCCN1CCC(Cc2ccccc2)CC1,15.1 µM (inactive),16,14.2,> 25,9.91,–
COc1ccc(CCNc2nnc(Sc3nnnn3-c3ccccc3)s2)cc1OC,> 25 µM (inactive),> 25,> 25,10.3,> 25,–
CCCCNC(=O)C(=O)Nc1ccc2c(c1)N(S(=O)(=O)c1cccs1)CCC2,> 25 µM (inactive),> 25,> 25,> 25,9.53,–
CSc1ccc(C2=C/C(=C3/SC(=S)NC3=O)c3ccccc3O2)cc1,> 25 µM (inactive),> 25,> 25,11.8,17.3,14.6 µM
c1ccc(N=NC2=NN(c3ccccc3)CS2)cc1,–,> 25,> 25,3.57,3.8,3.69 µM
CSc1nc(N(C)NC(=O)c2ccc(Cl)cc2)c2ccccc2n1,> 25 µM (inactive),> 25,> 25,> 25,> 25,> 25 µM (inactive)
O[C@H]1CN(CC2CCCCC2)[C@@H](c2ccc(Cl)cc2)C[C@@H]1n1cc(-c2ccc(F)cc2)nn1,> 25 µM (inactive),> 25,> 25,18.5,> 25,–
c1ccc(N(c2ccccc2)c2nc(N3CCCC3)nc(-n3ccnc3)n2)cc1,> 25 µM (inactive),> 25,> 25,19.1,16.3,17.7 µM (inactive)
CCN(CC)CCNc1nc2cc(OC)c(OC)cc2c2nc(-c3ccccc3)nn12,> 25 µM (inactive),> 25,> 25,> 25,> 25,> 25 µM (inactive)
Cc1ccc(NC(=O)c2cc([N+](=O)[O-])ccc2NCc2cccnc2)cc1Cl,> 25 µM (inactive),> 25,> 25,10.5,17.6,14 µM
O=C(CSc1cccc2cccnc12)Nc1ccc(S(=O)(=O)N2CCOCC2)cc1,> 25 µM (inactive),> 25,> 25,> 25,> 25,> 25 µM (inactive)
CN(C)CCCn1c(SCC(=O)Nc2nc(-c3cccc(Br)c3)cs2)nc2ccccc2c1=O,> 25 µM (inactive),> 25,> 25,10.1,9.46,9.78 µM
Cc1ccc(CNC(=O)c2ccc(N3CCC4(CC3)CC(c3ccccc3)=NO4)c(NC(=O)c3ccc(Br)cc3)c2)cc1,–,> 25,> 25,3.68,5.18,4.43 µM
